The test system of one experiment is human elderly PBMCs. The experiment is described as follows: Screen of 310 molecules for TNF production by human elderly PBMCs. Type of experiment: cell-based. Conditions: elderly PBMCs of 4 donors, 10% autologous plasma. From the text: (§1) FIGS. 1A-1D. Discovery of PVP-179 in a human PBMC high-throughput screen. FIG. 1A: A graphical overview depicting screen approach. From a high-throughput screen previously conducted, 310 molecules were identified to be activators of either THP-1 cells (monocyte cell line) or primary human adult peripheral blood mononuclear cells (PBMCs). These 310 molecules were assembled into a stimulation plate and then applied to the PBMCs of 4 elderly donors (cultured with 10% autologous plasma). […] Z scores were averaged across all four elderly donors. The Z score and chemical structure for PVP-179 are indicated. FIG. 1C: Human adult or elderly PBMCs (cultured with 10% autologous plasma) were stimulated with PVP-179 in a two-point concentration titration manner. After 18 hours of incubation, supernatant was processed for ELISA-based measurement of TNF production. N=4 donors. FIG. 1D: As in FIG. 1C, the supernatants were collected, and 14 cytokines were measured by multiplex assay. […] N=4 donors each.
In a previous high throughput screen (HTS), a number of hit molecules were identified as potentially activating human leukocytes. […] A separate pilot screen of 9,000 of the molecules for TNF-inducing activity in adult human peripheral blood mononuclear cells (PBMCs) subsequently identified 133 molecules. […]

Experiment [1] relates to human adult and elderly PBMCs. The experiment in a line: 14-multiplex cytokine assay in PBMC supernatants. Type of experiment: cell-based.
Description: as §1
The activity of PVP-179 was confirmed in a 96-well format in both human adult and elderly PBMCs.

Another experiment has as its system null HEK cells. The experiment in a line: HEK-Null reporter cell line (reporter gene only). The class given is cell-based, human. Particulars: negative control cells, even at higher concentrations. The procedure: FIGS. 3A-3E. PVP-179 is a TLR8 agonist. FIG. 3A: PVP-179 was sent to InvivoGen for PRR ligand screening service. Various cells lines were utilized to screen for PVP-179-induced ([…]) activation of TLRs, NOD1/2, RIG-I/MDA-5, Dectin-1 or Mincle receptor. The heat-map depicts percentage activity compared to the positive control for each receptor. FIG. 3B: PVP-179 induced activity (% activity compared to the positive control: CL075 at 1 μg/mL) in HEK-293 cells specifically expressing hTLR8. In brief, these cells have an NF-κB/AP-1-inducible secreted embryonic alkaline phosphatase (SEAP) reporter gene which allows monitoring of signaling via TLR8. After incubation for 16-24 hours, supernatant harvested from the cells is mixed with media containing SEAP-substrate and the optical density (OD) is measured at 650 nm using a spectrophotometer. FIG. 3C: As in FIG. 3B, HEK cells specifically expressing hTLR2, hTLR7, or hTLR8, in addition to the HEK-Null cell line carrying only the reporter gene, were stimulated with the indicated concentrations of PVP-179. […] PVP-179 activity is expressed as a percentage of NF-κB induced in the cells stimulated with TNF (positive control for each cell line). […] The supernatants were harvested after 20-24 hours and SEAP production (to assess NF-κB activity) was measured using QUANTIBlue assay. […]
(In general: In a reporter assay the amount or activity of a reporter protein is the signal.)

The next experiment deals with human adult PBMCs. The experiment in a line: TNF ELISA in human adult PBMCs after TLR8 inhibitor CUCPT-9a. Type of experiment: cell-based. Conditions: CUCPT-9a pre-incubation. The procedure:
FIG. 3E: As in FIG. 3D, PBMCs isolated from human adult donors were cultured with 10% autologous plasma and incubated with CUCPT-9a. After inhibition, cells were stimulated with DMSO, TL8-506 (TLR8 specific agonist), LPS (TLR4 agonist; negative control) and different concentrations of PVP-179. Supernatants were harvested after 20-24 hours and analyzed for production of TNF via ELISA. N=6 donors.
Next a TLR8-specific pharmacological inhibitor (CUCPT-9a), which stabilizes the TLR8 dimer in its resting state, was used to inhibit activity downstream of TLR8.

Experiment [2] concerns human monocyte derived macrophages. The experiment in a line: TNF ELISA in human monocyte derived macrophages. Type of experiment: cell-based. Conditions: 20-24 hours. The procedure: FIGS. 4A-4D. PVP-179 activates human macrophages and dendritic cells. FIGS. 4A-4B: Murine mononuclear cells were isolated from bone marrow and induced differentiation into dendritic cells (with GM-CSF and IL-4). After 5 days of culturing, these bone-marrow-derived dendritic cells (BMDCs) were stimulated with PVP-179 or MPLA for 18 hours at indicated concentrations. The supernatants were analyzed via ELISA where each dot in the graph represents the mean production of mTNF (FIG. 4A) and mIL-6 (FIG. 4B). N=6 for PVP-179, N=3 for MPLA. Two-way Anova was performed to determine statistical significance. The comparisons shown are compared to control group (0 M PVP-179). FIGS. 4C-4D: PBMCs were isolated from blood of adult human donors. CD14+ monocytes were specifically isolated from the PBMCs and were then cultured in 10% autologous plasma and induced to differentiate into macrophages with M-CSF (FIG. 4C), or dendritic cells with GM-CSF and IL-4 (FIG. 4D). After 5 days, cells were harvested from each differentiated cell type (macrophages: Mφ; dendritic cells: MoDCs) and a 96-well plate was setup with 100,000 cells/well. Cells were then stimulated with indicated concentrations of PVP-179 or R848 (33 μM) or LPS (100 ng/mL). After 20-24 hours of incubation, supernatants were harvested and applied to TNF ELISA. N=2 donors.

For `CCCCn1c(/N=C/c2nc3ccccc3n2C)nc2ccccc21` [PVP-179], the “TNF production, screen hit call” value in the experiment on human elderly PBMCs is “robust TNF-inducing hit”. The “innate immune response (cytokine responses), elder vs younger adult leukocytes” value in experiment [1] (14-multiplex assay) is reported as “greater innate immune response in elder leukocytes than in younger adult controls”. Also, the “proinflammatory cytokine and chemokine induction (TNF, IL-6, IL-8, IL-10, IL-12 p40, IL-12 p70, IP-10, CCL5, CCL3, MCP1, GM-CSF, IFN-γ, IFN-α2, IL1-β)” value in experiment [1] (similarly to R848 at 25 μM) was “titration-dependent concentration of proinflammatory cytokines”. Further, in the experiment with null HEK cells, the “NF-κB activity in null HEK cells” value is “no activity was detected”. The “PVP-179 induced TNF production after CUCPT-9a” value in the experiment with human adult PBMCs was “completely blocked”. Moreover, the TNF-inducing activity entry in experiment [2] is reported as “concentration-dependent activity”.

The record behind these values is patent publication US20250041278A1, “TLR8 AGONIST FOR MODULATING IMMUNE RESPONSE” (The Children's Medical Center Corporation, priority 2021, published 2025).
